Measurements as given in patent EP3262942A1, “SELENODIARYLS FOR USE AS MICROBICIDE OR AS MEDICINE” (Evonik Degussa GmbH, priority 2016, dated 2018).

Key:
[1] = system: Setaria italica; assay: Crop plant growth test, seeds on filter discs, 4 days, visual evaluation; format: in vivo
Procedure: (§1) Testsubstanzen und Kontrollen werden auf Filterrondellen in Mikrotiterplatten (48 well) vorgelegt und das verwendete Lösungsmittel (DMSO) über Lyophilisation entfernt. Anschließend werden ca. 12 Samen pro Vertiefung (Setaria italical Lepidium sativum) zugeben, mit 200 µl sterilem Leitungswasser pro Vertiefung versetzt, mit einem Deckel versehen und in einer feuchten Kammer für 4 Tage im Pflanzenbrutschrank inkubiert (16h-Licht-8h-Dunkel-Rhythmus). Die Auswertung des Tests erfolgt optisch (+: mind. 75 % Wachstumshemmung im Vergleich zur Kontrolle, -: weniger als 75 % Wachstumshemmung im Vergleich zur Kontrolle.

[2] = system: Lepidium sativum; assay: as above; format: in vivo
Procedure: as §1

[3] = system: Paecilomyces variotii; assay: Growth test in microtiter plates, HA medium, 24 h, visual evaluation; format: cell-based; set-up: key: +: kein Wachstum im Vergleich zur Wachstumskontrolle; -: Wachstum wie Wachstumskontrolle
[4] = system: Botrytis cinerea; assay: microbe, parasite or virus in culture; format: cell-based; conditions: Botrytis cinerea, 24 h, read-out: Aktivität gegenüber B. cinerea
[5] = system: M. grisea CM; assay: microbe, parasite or virus in culture; format: cell-based, Magnaporthe grisea; conditions: Pyricularia grisea, 24 h, read-out: Aktivität gegenüber M. grisea CM
[6] = system: P. infestans; assay: microbe, parasite or virus in culture; format: cell-based, Phytophthora infestans; conditions: Phytophthora infestans, 24 h, read-out: Aktivität gegenüber P. infestans
[7] = system: Mucor miehei; assay: Growth test in microtiter plates, HA medium, 24 h, visual evaluation; format: cell-based; set-up: key to Aktivität gegenüber M. miehei: +: kein Wachstum im Vergleich zur Wachstumskontrolle; -: Wachstum wie Wachstumskontrolle
[8] = system: Penicillium notatum; assay: as above; format: cell-based; set-up: key: +: kein Wachstum im Vergleich zur Wachstumskontrolle; -: Wachstum wie Wachstumskontrolle
[9] = system: Candida albicans; assay: as above; format: cell-based; set-up: key: +: kein Wachstum im Vergleich zur Wachstumskontrolle; -: Wachstum wie Wachstumskontrolle
[10] = system: alle getesteten Pathogene; format: cell-based; conditions: 5-50 µg/mL
[11] = system: M. grisea H2O; assay: microbe, parasite or virus in culture; format: cell-based, Magnaporthe grisea; conditions: Pyricularia grisea, H2O, 24 h, read-out: Aktivität gegenüber M. grisea H2O

SMILES	Aktivität gegenüber Nutzpflanzen: S. italica ([1]; 10µg/R)	Aktivität gegenüber Nutzpflanzen: S. italica ([1]; 20µg/R)	Aktivität gegenüber Nutzpflanzen: S. italica ([1]; 50µg/R)	Aktivität gegenüber Nutzpflanzen: L. sativum ([2]; 10µg/R)	Aktivität gegenüber Nutzpflanzen: L. sativum ([2]; 20µg/R)	Aktivität gegenüber Nutzpflanzen: L. sativum ([2]; 50µg/R)	Aktivität gegenüber P. variotii ([3]; 10µg/mL)	Aktivität gegenüber P. variotii ([3]; 50µg/mL)	inhibition of growth at 5 µg/mL [4]	inhibition of growth at 10 µg/mL [4]	inhibition of growth at 25 µg/mL [4]	inhibition of growth at 50 µg/mL [4]	inhibition of growth at 5 µg/mL [5]	inhibition of growth at 10 µg/mL [5]	inhibition of growth at 25 µg/mL [5]	inhibition of growth at 50 µg/mL [5]	inhibition of growth at 5 µg/mL [6]	inhibition of growth at 10 µg/mL [6]	inhibition of growth at 25 µg/mL [6]	inhibition of growth at 50 µg/mL [6]	further results
CC(C)(C)c1cc([Se]c2cc(C(C)(C)C)cc(C(C)(C)C)c2O)c(O)c(C(C)(C)C)c1 [Verbindung 14, Bis(3,5-di-tert-butyl-2-hydroxyphenyl)selen]	- (weniger als 75 % Wachstumshemmung im Vergleich zur Kontrolle)	- (weniger als 75 % Wachstumshemmung im Vergleich zur Kontrolle)	- (weniger als 75 % Wachstumshemmung im Vergleich zur Kontrolle)	- (weniger als 75 % Wachstumshemmung im Vergleich zur Kontrolle)	- (weniger als 75 % Wachstumshemmung im Vergleich zur Kontrolle)	- (weniger als 75 % Wachstumshemmung im Vergleich zur Kontrolle)	-	-	0 to 25%	0 to 25%	0 to 25%	0 to 25%	0 to 25%	0 to 25%	0 to 25%	0 to 25%	0 to 25%	0 to 25%	0 to 25%	0 to 25%	Aktivität gegenüber M. miehei ([7]; 10µg/mL): -; Aktivität gegenüber M. miehei ([7]; 50µg/mL): -; Aktivität gegenüber P. notatum ([8]; 10µg/mL): -; Aktivität gegenüber P. notatum ([8]; 50µg/mL): -; Aktivität gegenüber C. albicans ([9]; 10µg/mL): -; Aktivität gegenüber C. albicans ([9]; 50µg/mL): -; Aktivität im Wachstums- und Keimungshemmungstest gegen die getesteten Pathogene [10]: weder im Wachstums- noch im Keimungshemmungstest im verwendeten Konzentrationsbereich eine entsprechende Aktivität; inhibition of growth at 5 µg/mL [11]: 0 to 25%; inhibition of growth at 10 µg/mL [11]: 0 to 25%; inhibition of growth at 25 µg/mL [11]: 0 to 25%; inhibition of growth at 50 µg/mL [11]: 0 to 25%
CCc1cc([Se]c2cc(CC)cc(C(C)(C)C)c2O)c(O)c(C(C)(C)C)c1 [Verbindung 15, Bis(3-tert-butyl-5-ethyl-2-hydroxyphenyl)selen]	- (weniger als 75 % Wachstumshemmung im Vergleich zur Kontrolle)	- (weniger als 75 % Wachstumshemmung im Vergleich zur Kontrolle)	- (weniger als 75 % Wachstumshemmung im Vergleich zur Kontrolle)	- (weniger als 75 % Wachstumshemmung im Vergleich zur Kontrolle)	- (weniger als 75 % Wachstumshemmung im Vergleich zur Kontrolle)	- (weniger als 75 % Wachstumshemmung im Vergleich zur Kontrolle)	-	-	0 to 25%	0 to 25%	0 to 25%	0 to 25%	0 to 25%	0 to 25%	0 to 25%	0 to 25%	0 to 25%	0 to 25%	0 to 25%	0 to 25%	Aktivität gegenüber M. miehei ([7]; 10µg/mL): -; Aktivität gegenüber M. miehei ([7]; 50µg/mL): -; Aktivität gegenüber P. notatum ([8]; 10µg/mL): -; Aktivität gegenüber P. notatum ([8]; 50µg/mL): -; Aktivität gegenüber C. albicans ([9]; 10µg/mL): -; Aktivität gegenüber C. albicans ([9]; 50µg/mL): -; Aktivität im Wachstums- und Keimungshemmungstest gegen die getesteten Pathogene [10]: weder im Wachstums- noch im Keimungshemmungstest im verwendeten Konzentrationsbereich eine entsprechende Aktivität; inhibition of growth at 5 µg/mL [11]: 0 to 25%; inhibition of growth at 10 µg/mL [11]: 0 to 25%; inhibition of growth at 25 µg/mL [11]: 0 to 25%; inhibition of growth at 50 µg/mL [11]: 0 to 25%
